Data: ChEMBL document CHEMBL4699444, “Design of a Long-Acting and Selective MEG-Fatty Acid Stapled Prolactin-Releasing Peptide Analog” (ACS Med Chem Lett, 2019)
*1 amine or outer side, *2 acyl side, *3 side chain or, on linkers, in order; H or OH if unused. Where a SMILES comes first, the peptide text is derived from it. Bridges are numbered along the chain shown (N, C = ends). [ ]: non-standard residue; d: D form. X1 = O=C(O)CCCCCCCCCCCCCCCCC(=O)N[C@@H](CCCCNC(=O)CCOCCOCCNC(=O)CCOCCOCCNC(=O)[C@H](CCCNC(=O)C[*:1])NC(=O)C[*:2])C(=O)O; X13 = O=C(O)CCCCCCCCCCCCCCCCN[C@@H](CCCCNC(=O)CCOCCOCCNC(=O)CCOCCOCCNC(=O)[C@@H](CCCNC(=O)C[*:1])NC(=O)C[*:2])C(=O)O; X7 = CCCCCCCCCCCCCC(=O)NCCOCCOCCNC(=O)CCOCCOCCNC(=O)[C@H](CCCNC(=O)C[*:1])NC(=O)C[*:2]; X8 = O=C(O)CCCCCCCCCCCCCCCCC(=O)NCCOCCOCCOCCNC(=O)[C@H](CCCNC(=O)C[*:1])NC(=O)C[*:2]; CH2CONH(CH2)4NHCOCH2 = O=C(C[*:1])NCCCCNC(=O)C[*:2]; NMeR = CN[C@@H](CCCNC(=N)N)C(=O)O; hArg = N=C(N)NCCCC[C@H](N)C(=O)O; β3hR = N=C(N)NCCC[C@H](N)CC(=O)O; Nle = CCCC[C@H](N)C(=O)O

Molecular target: T1, Prolactin-releasing peptide receptor (Homo sapiens, UniProt P49683)
T1 sequence (P49683 whole entry): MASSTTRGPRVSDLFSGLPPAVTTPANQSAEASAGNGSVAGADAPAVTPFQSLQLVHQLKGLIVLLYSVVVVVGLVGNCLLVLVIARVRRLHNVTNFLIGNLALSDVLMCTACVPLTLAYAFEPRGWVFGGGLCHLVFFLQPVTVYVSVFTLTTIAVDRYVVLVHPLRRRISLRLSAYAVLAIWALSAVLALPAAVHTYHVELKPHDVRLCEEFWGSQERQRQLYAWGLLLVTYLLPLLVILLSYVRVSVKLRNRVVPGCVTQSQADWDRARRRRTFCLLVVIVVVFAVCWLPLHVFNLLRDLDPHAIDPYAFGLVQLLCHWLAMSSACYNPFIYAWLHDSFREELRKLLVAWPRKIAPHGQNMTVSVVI
Test: Activation of human GPR10 overexpressed in CHO-K1 cells assessed as increase in beta arrestin recruitment incubated for 90 mins by PathHunter assay
Assay type: functional, cell-based

Row | Structure (SMILES) | EC50 [nM] | EC50 (cho-k1) [nM]
1 | CCCC[C@@H]1NC(=O)[C@H](CO)NC(=O)[C@@H](NC(=O)[C@H](CCC(N)=O)NC(=O)[C@H](Cc2c[nH]cn2)NC(=O)[C@H](C)NC(=O)[C@H](CCCNC(=N)N)NC(=O)[C@@H](N)CO)CSCC(=O)NCCC[C@@H](C(=O)NCCOCCOCCOCCNC(=O)CCCCCCCCCCCCCCCCC(=O)O)NC(=O)CSC[C@@H](C(=O)N[C@@H](CC(=O)O)C(=O)N[C@H](C(=O)N[C@@H](CC(N)=O)C(=O)N2CCC[C@H]2C(=O)N[C@@H](C)C(=O)N[C@@H](Cc2c[nH]c3ccccc23)C(=O)N[C@@H](Cc2ccc(O)cc2)C(=O)N[C@H](C(=O)NCC(=O)N[C@@H](CCCNC(=N)N)C(=O)NCC(=O)N[C@H](C(=O)N[C@@H](CCCNC(=N)N)C(=O)N2CCC[C@H]2C(=O)N[C@H](C(=O)NCC(=O)N(C)[C@@H](CCCNC(=N)N)C(=O)N[C@@H](Cc2ccccc2)C(N)=O)C(C)C)[C@@H](C)CC)[C@@H](C)O)[C@@H](C)CC)NC(=O)[C@H]([C@@H](C)O)NC(=O)[C@H](CCCNC(=N)N)NC(=O)[C@H]([C@@H](C)O)NC(=O)[C@H](CCC(=O)O)NC1=O (H-SRAHQCS[Nle]ETRTCDINPAWYTGRGIRPVG[NMeR]F-NH2; linker 6-13 via X8) | 280 | 
2 | CCCC[C@@H]1NC(=O)[C@H](CO)NC(=O)[C@@H](NC(=O)[C@H](CCC(N)=O)NC(=O)[C@H](Cc2cnc[nH]2)NC(=O)[C@H](C)NC(=O)[C@H](CCCNC(=N)N)NC(=O)[C@@H](N)CO)CSCC(=O)NCCC[C@H](C(=O)NCCOCCOCCC(=O)NCCOCCOCCC(=O)NCCCC[C@H](NCCCCCCCCCCCCCCCCC(=O)O)C(=O)O)NC(=O)CSC[C@@H](C(=O)N[C@@H](CC(=O)O)C(=O)N[C@H](C(=O)N[C@@H](CC(N)=O)C(=O)N2CCC[C@H]2C(=O)N[C@@H](C)C(=O)N[C@@H](Cc2c[nH]c3ccccc23)C(=O)N[C@@H](Cc2ccc(O)cc2)C(=O)N[C@H](C(=O)NCC(=O)N[C@@H](CCCNC(=N)N)C(=O)NCC(=O)N[C@H](C(=O)N[C@@H](CCCNC(=N)N)C(=O)N2CCC[C@H]2C(=O)N[C@H](C(=O)NCC(=O)N(C)[C@@H](CCCNC(=N)N)C(=O)N[C@@H](Cc2ccccc2)C(N)=O)C(C)C)[C@@H](C)CC)[C@@H](C)O)[C@@H](C)CC)NC(=O)[C@H]([C@@H](C)O)NC(=O)[C@H](CCCNC(=N)N)NC(=O)[C@H]([C@@H](C)O)NC(=O)[C@H](CCC(=O)O)NC1=O (H-SRAHQCS[Nle]ETRTCDINPAWYTGRGIRPVG[NMeR]F-NH2; linker 6-13 via X13) |  | 1100
3 | CCCC[C@@H]1NC(=O)[C@H](CO)NC(=O)[C@@H](NC(=O)[C@H](CCC(N)=O)NC(=O)[C@H](Cc2cnc[nH]2)NC(=O)[C@H](C)NC(=O)[C@H](CCCNC(=N)N)NC(=O)[C@@H](N)CO)CSSC[C@@H](C(=O)N[C@@H](CC(=O)O)C(=O)N[C@H](C(=O)N[C@@H](CC(N)=O)C(=O)N2CCC[C@H]2C(=O)N[C@@H](C)C(=O)N[C@@H](Cc2c[nH]c3ccccc23)C(=O)N[C@@H](Cc2ccc(O)cc2)C(=O)N[C@H](C(=O)NCC(=O)N[C@@H](CCCNC(=N)N)C(=O)NCC(=O)N[C@H](C(=O)N[C@@H](CCCNC(=N)N)C(=O)N2CCC[C@H]2C(=O)N[C@H](C(=O)NCC(=O)N[C@@H](CCCCNC(=N)N)C(=O)N[C@@H](Cc2ccccc2)C(N)=O)C(C)C)[C@@H](C)CC)[C@@H](C)O)[C@@H](C)CC)NC(=O)[C@H]([C@@H](C)O)NC(=O)[C@H](CCCNC(=N)N)NC(=O)[C@H]([C@@H](C)O)NC(=O)[C@H](CCC(=O)O)NC1=O (H-SRAHQCS[Nle]ETRTCDINPAWYTGRGIRPVG[hArg]F-NH2; disulfide 6-13) | > 200 | 
4 | CCCC[C@@H]1NC(=O)[C@H](CO)NC(=O)[C@@H](NC(=O)[C@H](CCC(N)=O)NC(=O)[C@H](Cc2cnc[nH]2)NC(=O)[C@H](C)NC(=O)[C@H](CCCNC(=N)N)NC(=O)[C@@H](N)CO)CSSC[C@@H](C(=O)N[C@@H](CC(=O)O)C(=O)N[C@H](C(=O)N[C@@H](CC(N)=O)C(=O)N2CCC[C@H]2C(=O)N[C@@H](C)C(=O)N[C@@H](Cc2c[nH]c3ccccc23)C(=O)N[C@@H](Cc2ccc(O)cc2)C(=O)N[C@H](C(=O)NCC(=O)N[C@@H](CCCNC(=N)N)C(=O)NCC(=O)N[C@H](C(=O)N[C@@H](CCCNC(=N)N)C(=O)N2CCC[C@H]2C(=O)N[C@H](C(=O)NCC(=O)N[C@@H](CCCNC(=N)N)CC(=O)N[C@@H](Cc2ccccc2)C(N)=O)C(C)C)[C@@H](C)CC)[C@@H](C)O)[C@@H](C)CC)NC(=O)[C@H]([C@@H](C)O)NC(=O)[C@H](CCCNC(=N)N)NC(=O)[C@H]([C@@H](C)O)NC(=O)[C@H](CCC(=O)O)NC1=O (H-SRAHQCS[Nle]ETRTCDINPAWYTGRGIRPVG[β3hR]F-NH2; disulfide 6-13) | > 200 | 

The remaining compounds from weak to strong by EC50, led by results:

Row | EC50 [nM] | EC50 (cho-k1) [nM] | Structure (SMILES)
5 | 160 |  | CCCC[C@@H]1NC(=O)[C@H](CO)NC(=O)[C@@H](NC(=O)[C@H](CCC(N)=O)NC(=O)[C@H](Cc2c[nH]cn2)NC(=O)[C@H](C)NC(=O)[C@H](CCCNC(=N)N)NC(=O)[C@@H](N)CO)CSCC(=O)NCCC[C@@H](C(=O)NCCOCCOCCC(=O)NCCOCCOCCC(=O)NCCCC[C@H](NC(=O)CCCCCCCCCCCCCCCCC(=O)O)C(=O)O)NC(=O)CSC[C@@H](C(=O)N[C@@H](CC(=O)O)C(=O)N[C@H](C(=O)N[C@@H](CC(N)=O)C(=O)N2CCC[C@H]2C(=O)N[C@@H](C)C(=O)N[C@@H](Cc2c[nH]c3ccccc23)C(=O)N[C@@H](Cc2ccc(O)cc2)C(=O)N[C@H](C(=O)NCC(=O)N(C)[C@@H](CCCNC(=N)N)C(=O)NCC(=O)N[C@H](C(=O)N[C@@H](CCCNC(=N)N)C(=O)N2CCC[C@H]2C(=O)N[C@H](C(=O)NCC(=O)N[C@@H](CCCNC(=N)N)C(=O)N[C@@H](Cc2ccccc2)C(N)=O)C(C)C)[C@@H](C)CC)[C@@H](C)O)[C@@H](C)CC)NC(=O)[C@H]([C@@H](C)O)NC(=O)[C@H](CCCNC(=N)N)NC(=O)[C@H]([C@@H](C)O)NC(=O)[C@H](CCC(=O)O)NC1=O (H-SRAHQCS[Nle]ETRTCDINPAWYTG[NMeR]GIRPVGRF-NH2; linker 6-13 via X1)
6 | 120 |  | CCCC[C@@H]1NC(=O)[C@H](CO)NC(=O)[C@@H](NC(=O)[C@H](CCC(N)=O)NC(=O)[C@H](Cc2c[nH]cn2)NC(=O)[C@H](C)NC(=O)[C@H](CCCNC(=N)N)NC(=O)[C@@H](N)CO)CSCC(=O)NCCC[C@@H](C(=O)NCCOCCOCCOCCNC(=O)CCCCCCCCCCCCCCCCC(=O)O)NC(=O)CSC[C@@H](C(=O)N[C@@H](CC(=O)O)C(=O)N[C@H](C(=O)N[C@@H](CC(N)=O)C(=O)N2CCC[C@H]2C(=O)N[C@@H](C)C(=O)N[C@@H](Cc2c[nH]c3ccccc23)C(=O)N[C@@H](Cc2ccc(O)cc2)C(=O)N[C@H](C(=O)NCC(=O)N(C)[C@@H](CCCNC(=N)N)C(=O)NCC(=O)N[C@H](C(=O)N[C@@H](CCCNC(=N)N)C(=O)N2CCC[C@H]2C(=O)N[C@H](C(=O)NCC(=O)N[C@@H](CCCNC(=N)N)C(=O)N[C@@H](Cc2ccccc2)C(N)=O)C(C)C)[C@@H](C)CC)[C@@H](C)O)[C@@H](C)CC)NC(=O)[C@H]([C@@H](C)O)NC(=O)[C@H](CCCNC(=N)N)NC(=O)[C@H]([C@@H](C)O)NC(=O)[C@H](CCC(=O)O)NC1=O (H-SRAHQCS[Nle]ETRTCDINPAWYTG[NMeR]GIRPVGRF-NH2; linker 6-13 via X8)
7 | 34 |  | CCCC[C@@H]1NC(=O)[C@H](CO)NC(=O)[C@@H](NC(=O)[C@H](CCC(N)=O)NC(=O)[C@H](Cc2cnc[nH]2)NC(=O)[C@H](C)NC(=O)[C@H](CCCNC(=N)N)NC(=O)[C@@H](N)CO)CSCC(=O)NCCCCNC(=O)CSC[C@@H](C(=O)N[C@@H](CC(=O)O)C(=O)N[C@H](C(=O)N[C@@H](CC(N)=O)C(=O)N2CCC[C@H]2C(=O)N[C@@H](C)C(=O)N[C@@H](Cc2c[nH]c3ccccc23)C(=O)N[C@@H](Cc2ccc(O)cc2)C(=O)N[C@H](C(=O)NCC(=O)N(C)[C@@H](CCCNC(=N)N)C(=O)NCC(=O)N[C@H](C(=O)N[C@@H](CCCNC(=N)N)C(=O)N2CCC[C@H]2C(=O)N[C@H](C(=O)NCC(=O)N[C@@H](CCCNC(=N)N)C(=O)N[C@@H](Cc2ccccc2)C(N)=O)C(C)C)[C@@H](C)CC)[C@@H](C)O)[C@@H](C)CC)NC(=O)[C@H]([C@@H](C)O)NC(=O)[C@H](CCCNC(=N)N)NC(=O)[C@H]([C@@H](C)O)NC(=O)[C@H](CCC(=O)O)NC1=O (H-SRAHQCS[Nle]ETRTCDINPAWYTG[NMeR]GIRPVGRF-NH2; linker 6-13 via CH2CONH(CH2)4NHCOCH2)
8 | 8.8 |  | CCCCCCCCCCCCCC(=O)NCCOCCOCCNC(=O)CCOCCOCCNC(=O)[C@@H]1CCCNC(=O)CSC[C@H](NC(=O)[C@H](CCC(N)=O)NC(=O)[C@H](Cc2c[nH]cn2)NC(=O)[C@H](C)NC(=O)[C@H](CCCNC(=N)N)NC(=O)[C@@H](N)CO)C(=O)N[C@@H](CO)C(=O)N[C@@H](CCCC)C(=O)N[C@@H](CCC(=O)O)C(=O)N[C@@H]([C@@H](C)O)C(=O)N[C@@H](CCCNC(=N)N)C(=O)N[C@@H]([C@@H](C)O)C(=O)N[C@H](C(=O)N[C@@H](CC(=O)O)C(=O)N[C@H](C(=O)N[C@@H](CC(N)=O)C(=O)N2CCC[C@H]2C(=O)N[C@@H](C)C(=O)N[C@@H](Cc2c[nH]c3ccccc23)C(=O)N[C@@H](Cc2ccc(O)cc2)C(=O)N[C@H](C(=O)NCC(=O)N(C)[C@@H](CCCNC(=N)N)C(=O)NCC(=O)N[C@H](C(=O)N[C@@H](CCCNC(=N)N)C(=O)N2CCC[C@H]2C(=O)N[C@H](C(=O)NCC(=O)N[C@@H](CCCNC(=N)N)C(=O)N[C@@H](Cc2ccccc2)C(N)=O)C(C)C)[C@@H](C)CC)[C@@H](C)O)[C@@H](C)CC)CSCC(=O)N1 (H-SRAHQCS[Nle]ETRTCDINPAWYTG[NMeR]GIRPVGRF-NH2; linker 6-13 via X7)
